Values after ≈ are worked out from the molar mass of the structure shown. Active and inactive are the calls of the source. No cut-off for these calls is given here.
What was measured:
[1] = Selectivity index, ratio of compound concentration showing <25% hemolysis in mouse RBC to MIC for fluconazole/ITC-susceptible Candida albicans ATCC MYA-2876; format: toxicity; conditions: mouse red blood cells (RBC), read-out: Selectivity Index
[2] = Hemolytic activity in mouse RBC at 62.5 ug/ml after 1 hr relative to control; format: ADME, cell-based, Erythrocyte; conditions: red blood cells (erythrocytes), read-out: Activity
Aspergillus terreus = assay: Antifungal activity against Aspergillus terreus ATCC MYA-3633 measured after 48 hrs by CLSI M38-A2 protocol based method; format: functional; conditions: ATCC MYA-3633, 48 h
[3] = Selectivity index, ratio of CC50 for human A549 cells to MIC for Candida parapsilosis ATCC 22019; format: toxicity; conditions: read-out: Selectivity Index
[4] = Selectivity index, ratio of CC50 for human A549 cells to MIC for fluconazole/ITC-resistant Candida albicans ATCC MYA-1003; format: toxicity; conditions: read-out: Selectivity Index
[5] = Selectivity index, ratio of compound concentration showing <25% hemolysis in mouse RBC to MIC for fluconazole/ITC-resistant Candida albicans ATCC MYA-1003; format: toxicity; conditions: mouse red blood cells (RBC), read-out: Selectivity Index
Pichia kudriavzevii = assay: Antifungal activity against Candida krusei ATCC 6258 measured after 48 hrs by CLSI M27-A3 protocol based method; format: functional; conditions: ATCC 6258, 48 h
Staphylococcus aureus = assay: Antibacterial activity against methicillin-resistant Staphylococcus aureus; format: functional, organism-based
[6] = Selectivity index, ratio of compound concentration showing <25% hemolysis in mouse RBC to MIC for fluconazole/ITC-resistant Candida albicans ATCC 10231; format: toxicity; conditions: mouse red blood cells (RBC), read-out: Selectivity Index
[7] = Hemolytic activity in mouse RBC at 3.9 ug/ml after 1 hr relative to control; format: ADME, cell-based, Erythrocyte; conditions: red blood cells (erythrocytes), read-out: Activity
[8] = Hemolytic activity in mouse RBC at […] ug/ml after 1 hr relative to control; format: ADME, cell-based, Erythrocyte; conditions: red blood cells (erythrocytes), read-out: Activity
Nakaseomyces glabratus = assay: Antifungal activity against Candida glabrata ATCC 2001 measured after 48 hrs by CLSI M27-A3 protocol based method; format: functional; conditions: CBS 138, 48 h
Aspergillus flavus = assay: Antifungal activity against Aspergillus flavus ATCC MYA-3631 measured after 48 hrs by CLSI M38-A2 protocol based method; format: functional; conditions: ATCC MYA-3631, 48 h
BEAS-2B = assay: Cytotoxicity against human BEAS2B cells after 24 hrs by resazurin based assay; format: cell-based
[9] = Selectivity index, ratio of CC50 for human A549 cells to MIC for fluconazole/ITC-resistant Candida albicans ATCC 64124; format: toxicity; conditions: read-out: Selectivity Index
A549 = assay: Cytotoxicity against human A549 cells after 24 hrs by resazurin based assay; format: cell-based; conditions: a549, 24 h
Listeria monocytogenes = assay: Antibacterial activity against Listeria monocytogenes; format: functional, organism-based
Candida albicans [10] = assay: Antifungal activity against fluconazole/ITC-resistant Candida albicans ATCC MYA-1237 measured after 48 hrs by CLSI M27-A3 protocol based method; format: functional; conditions: ATCC MYA-1237, 48 h
Candida albicans [11] = assay: Antifungal activity against fluconazole/ITC-susceptible Candida albicans ATCC MYA-2876 measured after 48 hrs by CLSI M27-A3 protocol based method; format: functional; conditions: ATCC MYA-2876, 48 h
Candida albicans [12] = assay: Antifungal activity against fluconazole/ITC-resistant Candida albicans ATCC MYA-1003 measured after 48 hrs by CLSI M27-A3 protocol based method; format: functional; conditions: ATCC MYA-1003, 48 h
Enterococcus = assay: Antibacterial activity against vancomycin-resistant Enterococcus; format: functional, organism-based
[13] = Selectivity index, ratio of CC50 for human A549 cells to MIC for fluconazole/ITC-resistant Candida albicans ATCC 90819; format: toxicity; conditions: read-out: Selectivity Index
Candida albicans [14] = assay: Antifungal activity against fluconazole/ITC-resistant Candida albicans ATCC 10231 measured after 48 hrs by CLSI M27-A3 protocol based method; format: functional; conditions: ATCC 10231, 48 h
[15] = Hemolytic activity in mouse RBC at 31.3 ug/ml after 1 hr relative to control; format: ADME, cell-based, Erythrocyte; conditions: red blood cells (erythrocytes), read-out: Activity
Candida parapsilosis = assay: Antifungal activity against Candida parapsilosis ATCC 22019 measured after 48 hrs by CLSI M27-A3 protocol based method; format: functional; conditions: Lodderomyces parapsilosis, ATCC 22019, 48 h
Candida albicans [16] = assay: Antifungal activity against fluconazole/ITC-resistant Candida albicans ATCC 64124 measured after 48 hrs by CLSI M27-A3 protocol based method; format: functional; conditions: ATCC 64124, 48 h
[17] = Selectivity index, ratio of CC50 for human A549 cells to MIC for fluconazole/ITC-resistant Candida albicans ATCC 10231; format: toxicity; conditions: read-out: Selectivity Index
[18] = Selectivity index, ratio of compound concentration showing <25% hemolysis in mouse RBC to MIC for fluconazole/ITC-resistant Candida albicans ATCC MYA-1237; format: toxicity; conditions: mouse red blood cells (RBC), read-out: Selectivity Index
[19] = Selectivity index, ratio of compound concentration showing <25% hemolysis in mouse RBC to MIC for Aspergillus flavus ATCC MYA-3631; format: toxicity; conditions: mouse red blood cells (RBC), read-out: Selectivity Index
[20] = Selectivity index, ratio of CC50 for human A549 cells to MIC for fluconazole/ITC-susceptible Candida albicans ATCC MYA-2876; format: toxicity; conditions: read-out: Selectivity Index
[21] = Selectivity index, ratio of compound concentration showing <25% hemolysis in mouse RBC to MIC for fluconazole/ITC-resistant Candida albicans ATCC 90819; format: toxicity; conditions: mouse red blood cells (RBC), read-out: Selectivity Index
[22] = Selectivity index, ratio of CC50 for human A549 cells to MIC for Aspergillus flavus ATCC MYA-3631; format: toxicity; conditions: read-out: Selectivity Index
[23] = Selectivity index, ratio of CC50 for human A549 cells to MIC for fluconazole/ITC-susceptible Candida albicans ATCC MYA-2310; format: toxicity; conditions: read-out: Selectivity Index
[24] = Selectivity index, ratio of compound concentration showing <25% hemolysis in mouse RBC to MIC for Candida parapsilosis ATCC 22019; format: toxicity; conditions: mouse red blood cells (RBC), read-out: Selectivity Index
[25] = Selectivity index, ratio of compound concentration showing <25% hemolysis in mouse RBC to MIC for Candida krusei ATCC 6258; format: toxicity; conditions: mouse red blood cells (RBC), read-out: Selectivity Index
[26] = Selectivity index, ratio of compound concentration showing <25% hemolysis in mouse RBC to MIC for Candida glabrata ATCC 2001; format: toxicity; conditions: mouse red blood cells (RBC), read-out: Selectivity Index
[27] = Selectivity index, ratio of compound concentration showing <25% hemolysis in mouse RBC to MIC for fluconazole/ITC-resistant Candida albicans ATCC 64124; format: toxicity; conditions: mouse red blood cells (RBC), read-out: Selectivity Index
[28] = Selectivity index, ratio of CC50 for human A549 cells to MIC for Candida krusei ATCC 6258; format: toxicity; conditions: read-out: Selectivity Index
[29] = Selectivity index, ratio of CC50 for human A549 cells to MIC for Aspergillus terreus ATCC MYA-3633; format: toxicity; conditions: read-out: Selectivity Index
[30] = Selectivity index, ratio of CC50 for human A549 cells to MIC for Candida glabrata ATCC 2001; format: toxicity; conditions: read-out: Selectivity Index
[31] = Hemolytic activity in mouse RBC at 7.8 ug/ml after 1 hr relative to control; format: ADME, cell-based, Erythrocyte; conditions: red blood cells (erythrocytes), read-out: Activity
Candida albicans [32] = assay: Antifungal activity against fluconazole/ITC-susceptible Candida albicans ATCC MYA-2310 measured after 48 hrs by CLSI M27-A3 protocol based method; format: functional; conditions: ATCC MYA-2310, 48 h
[33] = Hemolytic activity in mouse RBC at 1.95 ug/ml after 1 hr relative to control; format: ADME, cell-based, Erythrocyte; conditions: red blood cells (erythrocytes), read-out: Activity
[34] = Selectivity index, ratio of CC50 for human A549 cells to MIC for Aspergillus nidulans ATCC 38163; format: toxicity; conditions: read-out: Selectivity Index
Candida albicans [35] = assay: Antifungal activity against fluconazole/ITC-resistant Candida albicans ATCC 90819 measured after 48 hrs by CLSI M27-A3 protocol based method; format: functional; conditions: ATCC 90819, 48 h
[36] = Hemolytic activity in mouse RBC at […] after 1 hr relative to control; format: ADME, cell-based, Erythrocyte; conditions: red blood cells (erythrocytes), read-out: Activity; note: tested at 0.48 µg/mL
[37] = Selectivity index, ratio of compound concentration showing <25% hemolysis in mouse RBC to MIC for Aspergillus terreus ATCC MYA-3633; format: toxicity; conditions: mouse red blood cells (RBC), read-out: Selectivity Index
Aspergillus nidulans = assay: Antifungal activity against Aspergillus nidulans ATCC 38163 measured after 48 hrs by CLSI M38-A2 protocol based method; format: functional; conditions: ATCC 38163, 48 h
[38] = Selectivity index, ratio of compound concentration showing <25% hemolysis in mouse RBC to MIC for Aspergillus nidulans ATCC 38163; format: toxicity; conditions: mouse red blood cells (RBC), read-out: Selectivity Index
[39] = Selectivity index, ratio of compound concentration showing <25% hemolysis in mouse RBC to MIC for fluconazole/ITC-susceptible Candida albicans ATCC MYA-2310; format: toxicity; conditions: mouse red blood cells (RBC), read-out: Selectivity Index
[40] = Selectivity index, ratio of CC50 for human A549 cells to MIC for fluconazole/ITC-resistant Candida albicans ATCC MYA-1237; format: toxicity; conditions: read-out: Selectivity Index

With `Fc1ccc(N/N=C/c2ccc(-c3cccc(/C=N/Nc4ccc(F)cc4F)c3)cc2)c(F)c1` the selectivity ratio [1] was 1 to 32, the hemolysis at 1 h, 62.5 ug/ml [2] was 23.5% and the MIC (Aspergillus terreus) was 31.3 µg/mL (≈ 67.7 µM). For the same molecule, the selectivity ratio [3] was 0.5, the selectivity ratio [4] was 2.1 and the selectivity ratio [5] was 1 to 32. The MIC (Pichia kudriavzevii) was 1.95 µg/mL (≈ 4.22 µM), the Activity (Staphylococcus aureus) was “inactive” and the selectivity ratio [6] was 1 to 32. For the same molecule, the hemolysis at 1 h, 3.9 ug/ml [7] was 4.2%, the hemolysis at 1 h, 15.6 ug/ml ([8]; at 15.6 µg/mL) was 14.6% and the hemolysis at 1 h, 0.975 ug/ml [8] was 0%. The MIC (Nakaseomyces glabratus) was 15.6 µg/mL (≈ 33.7 µM), the MIC (Aspergillus flavus) was 7.8 µg/mL (≈ 16.9 µM) and the CC50 (BEAS-2B) was 16.9 µg/mL (≈ 36.5 µM). The selectivity ratio [9] was 2.1, the CC50 (A549) was 16.4 µg/mL (≈ 35.5 µM) and the Activity (Listeria monocytogenes) was “inactive”. It also gave an MIC (Candida albicans [10]) of 7.8 µg/mL (≈ 16.9 µM), an MIC (Candida albicans [11]) of 15.6 µg/mL (≈ 33.7 µM) and an MIC (Candida albicans [12]) of 7.8 µg/mL (≈ 16.9 µM). The Activity (Enterococcus) was “inactive”, the selectivity ratio [13] was 1.1 and the MIC (Candida albicans [14]) was 3.9 µg/mL (≈ 8.43 µM). For the same molecule, the hemolysis at 1 h, 31.3 ug/ml [15] was 14.6%, the MIC (Candida parapsilosis) was 31.3 µg/mL (≈ 67.7 µM) and the MIC (Candida albicans [16]) was 7.8 µg/mL (≈ 16.9 µM). It also gave a selectivity ratio [17] of 4.2, a selectivity ratio [18] of 1 to 32 and a selectivity ratio [19] of 1 to 32. It also gave a selectivity ratio [20] of 1.1, a selectivity ratio [21] of 1 to 32 and a selectivity ratio [22] of 2.1. It also gave a selectivity ratio [23] of 1.1, a selectivity ratio [24] of 1 to 32 and a selectivity ratio [25] of 1 to 32. It also gave a selectivity ratio [26] of 1 to 32, a selectivity ratio [27] of 1 to 32 and a selectivity ratio [28] of 8.4. For the same molecule, the selectivity ratio [29] was 0.5, the selectivity ratio [30] was 1.1 and the hemolysis at 1 h, 7.8 ug/ml [31] was 8.6%. It also gave an MIC (Candida albicans [32]) of 15.6 µg/mL (≈ 33.7 µM), a hemolysis at 1 h, 1.95 ug/ml [33] of 4.5% and a selectivity ratio [34] of 2.1. It also gave an MIC (Candida albicans [35]) of 15.6 µg/mL (≈ 33.7 µM), a hemolysis at 1 h, […] [36] of 1.6% and a selectivity ratio [37] of 1 to 32. For the same molecule, the MIC (Aspergillus nidulans) was 7.8 µg/mL (≈ 16.9 µM), the selectivity ratio [38] was 1 to 32 and the selectivity ratio [39] was 1 to 32. It also gave a selectivity ratio [40] of 2.1.

— ChEMBL document CHEMBL4411307, “N,N'-diaryl-bishydrazones in a biphenyl platform: Broad spectrum antifungal agents” (Eur J Med Chem, 2019)
